Earlier results in patent publication US20190320698A1, “HYDROLYZED PECTIN AND USEOF THE SAME” (International Flavors & Fragrances Inc., priority 2018, published 2019).

Details: approximate values

Row | SMILES | Water Solubility (g/L, approx.)
1 | CSC [dimethyl sulfide] | Insoluble
2 | CCOC(C)=O [ethyl acetate] | ~90 g/L
3 | CCCC(=O)OCC [ethyl butyrate] | ~6 g/L
4 | CCOC(=O)CC [ethyl propionate] | ~14 g/L
5 | CCCC(=O)OC [methyl butyrate] | ~15 g/L
